Assay results as given in PubChem BioAssay (NCI).
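All cell lines were grown in 96-well plates and treated with compound for 48 hours. Abbreviation: GI50, concentration required for 50% inhibition of growth. TGI: concentration producing complete growth inhibition.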

Tests used:
Assay in all cases: inhibition of tumour cell growth, NCI panel, 48 h
DLD-1 colon = test system: DLD-1 colon
A549 NSCLC = test system: A549 NSCLC
COLO 205 colon = test system: COLO 205 colon
RPMI-8226 leukemia = test system: RPMI-8226 leukemia
SF-295 CNS = test system: SF-295 CNS
NCI-H226 lung = test system: NCI-H226 lung
SF-539 CNS = test system: SF-539 CNS
SK-MEL-5 melanoma = test system: SK-MEL-5 melanoma
OVCAR-3 ovarian = test system: OVCAR-3 ovarian
SK-OV-3 ovarian = test system: SK-OV-3 ovarian
HT29 colon = test system: HT29 colon
HOP-92 NSCLC = test system: HOP-92 NSCLC
MALME-3M melanoma = test system: MALME-3M melanoma
OVCAR-4 ovarian = test system: OVCAR-4 ovarian
ACHN renal = test system: ACHN renal
NCI-H460 lung = test system: NCI-H460 lung
HOP-18 NSCLC = test system: HOP-18 NSCLC
HOP-62 NSCLC = test system: HOP-62 NSCLC
EKVX NSCLC = test system: EKVX NSCLC
SK-MEL-28 melanoma = test system: SK-MEL-28 melanoma
CCRF-CEM leukemia = test system: CCRF-CEM leukemia
UO-31 renal = test system: UO-31 renal
OVCAR-8 ovarian = test system: OVCAR-8 ovarian
SW-620 colon = test system: SW-620 colon
HCT-116 colon = test system: HCT-116 colon
IGROV1 ovarian = test system: IGROV1 ovarian
UACC-257 melanoma = test system: UACC-257 melanoma
MOLT-4 leukemia = test system: MOLT-4 leukemia
A498 renal = test system: A498 renal
SN12C renal = test system: SN12C renal
XF 498 CNS = test system: XF 498 CNS
TK-10 renal = test system: TK-10 renal
SNB-75 CNS = test system: SNB-75 CNS
HL-60(TB) leukemia = test system: HL-60(TB) leukemia
CAKI-1 renal = test system: CAKI-1 renal
LOX IMVI melanoma = test system: LOX IMVI melanoma
DMS 273 small cell lung = test system: DMS 273 small cell lung
HCC-2998 colon = test system: HCC-2998 colon
KM20L2 colon = test system: KM20L2 colon
K-562 leukemia = test system: K-562 leukemia
SR leukemia = test system: SR leukemia
786-0 renal = test system: 786-0 renal
SF-268 CNS = test system: SF-268 CNS
OVCAR-5 ovarian = test system: OVCAR-5 ovarian
M14 melanoma = test system: M14 melanoma
UACC-62 melanoma = test system: UACC-62 melanoma
SNB-19 CNS = test system: SNB-19 CNS
SK-MEL-2 melanoma = test system: SK-MEL-2 melanoma
RXF 393 renal = test system: RXF 393 renal
NCI-H522 lung = test system: NCI-H522 lung
SNB-78 CNS = test system: SNB-78 CNS
HCT-15 colon = test system: HCT-15 colon
U251 CNS = test system: U251 CNS
KM12 colon = test system: KM12 colon
LXFL 529 NSCLC = test system: LXFL 529 NSCLC
NCI-H23 lung = test system: NCI-H23 lung

In the case of `O=C([O-])c1ccc2c(c1)-c1nc-2nc2[n-]c(nc3nc(nc4[n-]c(n1)c1ccc(C(=O)[O-])cc41)-c1ccc(C(=O)[O-])cc1-3)c1ccc(C(=O)[O-])cc21.[Gd+3].[K+]`, the GI50 (DLD-1 colon) is reported as > 53.2 µM, the TGI (DLD-1 colon) is reported as > 94 µM and the GI50 (A549 NSCLC) is reported as > 100 µM. For the same compound, the TGI (A549 NSCLC) was > 100 µM, the GI50 (COLO 205 colon) was > 38.9 µM and the TGI (COLO 205 colon) was > 55.2 µM. For the same compound, the GI50 (RPMI-8226 leukemia) was > 47.2 µM, the TGI (RPMI-8226 leukemia) was > 66 µM and the GI50 (SF-295 CNS) was > 100 µM. For the same compound, the TGI (SF-295 CNS) was > 100 µM, the GI50 (NCI-H226 lung) was > 100 µM and the TGI (NCI-H226 lung) was > 100 µM. The GI50 (SF-539 CNS) was > 46.5 µM, the TGI (SF-539 CNS) was > 69 µM and the GI50 (SK-MEL-5 melanoma) was > 100 µM. For the same compound, the TGI (SK-MEL-5 melanoma) was > 100 µM, the GI50 (OVCAR-3 ovarian) was > 100 µM and the TGI (OVCAR-3 ovarian) was > 100 µM. For the same compound, the GI50 (SK-OV-3 ovarian) was > 100 µM, the TGI (SK-OV-3 ovarian) was > 100 µM and the GI50 (HT29 colon) was > 83.1 µM. For the same compound, the TGI (HT29 colon) was > 100 µM, the GI50 (HOP-92 NSCLC) was > 100 µM and the TGI (HOP-92 NSCLC) was > 100 µM. The GI50 (MALME-3M melanoma) was > 100 µM, the TGI (MALME-3M melanoma) was > 100 µM and the GI50 (OVCAR-4 ovarian) was > 46.7 µM. For the same compound, the TGI (OVCAR-4 ovarian) was > 71.7 µM, the GI50 (ACHN renal) was > 100 µM and the TGI (ACHN renal) was > 100 µM. For the same compound, the GI50 (NCI-H460 lung) was > 100 µM, the TGI (NCI-H460 lung) was > 100 µM and the GI50 (HOP-18 NSCLC) was > 100 µM. The TGI (HOP-18 NSCLC) was > 100 µM, the GI50 (HOP-62 NSCLC) was > 100 µM and the TGI (HOP-62 NSCLC) was > 100 µM. For the same compound, the GI50 (EKVX NSCLC) was > 100 µM, the TGI (EKVX NSCLC) was > 100 µM and the GI50 (SK-MEL-28 melanoma) was > 100 µM. The TGI (SK-MEL-28 melanoma) was > 100 µM, the GI50 (CCRF-CEM leukemia) was > 36.5 µM and the TGI (CCRF-CEM leukemia) was > 54.2 µM. The GI50 (UO-31 renal) was > 100 µM, the TGI (UO-31 renal) was > 100 µM and the GI50 (OVCAR-8 ovarian) was > 100 µM. The TGI (OVCAR-8 ovarian) was > 100 µM, the GI50 (SW-620 colon) was > 22.8 µM and the TGI (SW-620 colon) was > 50.9 µM. The GI50 (HCT-116 colon) was > 40.1 µM, the TGI (HCT-116 colon) was > 56.6 µM and the GI50 (IGROV1 ovarian) was > 100 µM. For the same compound, the TGI (IGROV1 ovarian) was > 100 µM, the GI50 (UACC-257 melanoma) was > 100 µM and the TGI (UACC-257 melanoma) was > 100 µM. The GI50 (MOLT-4 leukemia) was > 49 µM, the TGI (MOLT-4 leukemia) was > 100 µM and the GI50 (A498 renal) was > 100 µM. For the same compound, the TGI (A498 renal) was > 100 µM, the GI50 (SN12C renal) was > 72.7 µM and the TGI (SN12C renal) was > 100 µM. The GI50 (XF 498 CNS) was > 100 µM, the TGI (XF 498 CNS) was > 100 µM and the GI50 (TK-10 renal) was > 100 µM. The TGI (TK-10 renal) was > 100 µM, the GI50 (SNB-75 CNS) was > 100 µM and the TGI (SNB-75 CNS) was > 100 µM. The GI50 (HL-60(TB) leukemia) was > 38.5 µM, the TGI (HL-60(TB) leukemia) was > 54.5 µM and the GI50 (CAKI-1 renal) was > 100 µM. For the same compound, the TGI (CAKI-1 renal) was > 100 µM, the GI50 (LOX IMVI melanoma) was 16.6 µM and the TGI (LOX IMVI melanoma) was 45.7 µM. For the same compound, the GI50 (DMS 273 small cell lung) was 16.6 µM, the TGI (DMS 273 small cell lung) was 36.1 µM and the GI50 (HCC-2998 colon) was > 100 µM. For the same compound, the TGI (HCC-2998 colon) was > 100 µM, the GI50 (KM20L2 colon) was > 58.8 µM and the TGI (KM20L2 colon) was > 100 µM. For the same compound, the GI50 (K-562 leukemia) was > 38.9 µM, the TGI (K-562 leukemia) was > 56.8 µM and the GI50 (SR leukemia) was 30.6 µM. It also gave a TGI (SR leukemia) of 53.9 µM, a GI50 (786-0 renal) of 18 µM and a TGI (786-0 renal) of 40.9 µM. For the same compound, the GI50 (SF-268 CNS) was > 64.1 µM, the TGI (SF-268 CNS) was > 100 µM and the GI50 (OVCAR-5 ovarian) was > 100 µM. The TGI (OVCAR-5 ovarian) was > 100 µM, the GI50 (M14 melanoma) was > 65.1 µM and the TGI (M14 melanoma) was > 100 µM. For the same compound, the GI50 (UACC-62 melanoma) was 99.7 µM, the TGI (UACC-62 melanoma) was > 100 µM and the GI50 (SNB-19 CNS) was > 100 µM. For the same compound, the TGI (SNB-19 CNS) was > 100 µM, the GI50 (SK-MEL-2 melanoma) was > 100 µM and the TGI (SK-MEL-2 melanoma) was > 100 µM. The GI50 (RXF 393 renal) was > 100 µM, the TGI (RXF 393 renal) was > 100 µM and the GI50 (NCI-H522 lung) was > 100 µM. For the same compound, the TGI (NCI-H522 lung) was > 100 µM, the GI50 (SNB-78 CNS) was > 100 µM and the TGI (SNB-78 CNS) was > 100 µM. The GI50 (HCT-15 colon) was > 42.6 µM, the TGI (HCT-15 colon) was > 64.3 µM and the GI50 (U251 CNS) was > 57 µM. For the same compound, the TGI (U251 CNS) was > 100 µM, the GI50 (KM12 colon) was 19.1 µM and the TGI (KM12 colon) was 34.6 µM. The GI50 (LXFL 529 NSCLC) was > 57.1 µM, the TGI (LXFL 529 NSCLC) was > 100 µM and the GI50 (NCI-H23 lung) was > 100 µM. The TGI (NCI-H23 lung) was > 100 µM.
